These results are taken from patent US20150141336A1, “Pancreatic Peptide Compounds and Use” (Novo Nordisk A/S, priority 2012, published 2015).

Read-outs that look alike come from different tables or passages of the source. Numbered stars: 1 amine (or outer) side, 2 acyl side, 3 side chain; on linkers, the order of the positions; unused ones are H or OH. Side chains are listed from the residue outwards. Peptide text beside a SMILES is read from it. * marks the point of attachment. C18 diacid = O=C(O)CCCCCCCCCCCCCCCCC(=O)*; γGlu = O=C(O)[C@H](CCC(=O)[*:2])N[*:1]; AEEA = NCCOCCOCC(=O)O

This data set in a line: Assay (II) PK i.v. minipig, in vivo half-life. Also noted: species or system Göttingen mini-pigs. As to conditions: male, Göttingen, iv. The gist of the method: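 Male Göttingen mini-pigs (18–22 kg, n=5) received 6 nmol/kg i.v. via central catheter, formulated in 50 mM K2HPO4, 0.05% tween 80, pH 8.0. EDTA plasma sampled pre-dose to 240 h, quantified by TFC/LC/MS/MS (MRM, range 1-2000 nmol/l); half-life from non-compartmental analysis per animal.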

Where [1] appears, read: minipig, Half-life minipig, Assay (II).

The term half-life denotes how long it takes for the measured level to halve. Regarding `CC[C@H](C)[C@H](NC(=O)[C@H](Cc1ccc(O)cc1)NC(=O)[C@H](CCCNC(=N)N)NC(=O)[C@H](CCCNC(=N)N)NC(=O)[C@H](CC(C)C)NC(=O)[C@H](CC(=O)O)NC(=O)[C@H](C)NC(=O)[C@H](C)NC(=O)[C@H](Cc1ccc(O)cc1)NC(=O)[C@H](CCC(N)=O)NC(=O)[C@H](C)NC(=O)[C@H](CCSC)NC(=O)[C@H](CCC(N)=O)NC(=O)[C@H](CCC(=O)O)NC(=O)[C@@H]1CCCN1C(=O)[C@@H](NC(=O)[C@H](C)NC(=O)[C@H](CC(N)=O)NC(=O)[C@H](CC(=O)O)NC(=O)CNC(=O)[C@@H]1CCCN1C(=O)[C@H](Cc1ccc(O)cc1)NC(=O)[C@@H](NC(=O)[C@@H]1CCCN1C(=O)[C@H](CCC(=O)O)NC(=O)[C@@H](N)CC(C)C)C(C)C)[C@@H](C)O)C(=O)N[C@@H](CC(N)=O)C(=O)N[C@@H](CCCCNC(=O)COCCOCCNC(=O)COCCOCCNC(=O)CC[C@H](NC(=O)CCCCCCCCCCCCCCCCC(=O)O)C(=O)O)C(=O)N[C@@H](CC(C)C)C(=O)N[C@H](C(=O)N[C@@H](CCCNC(=N)N)C(=O)N1CCC[C@H]1C(=O)N[C@@H](CCCNC(=N)N)C(=O)N[C@@H](Cc1ccc(O)cc1)C(N)=O)[C@@H](C)O` [Compound AL] (H-LEPVYPGDNATPEQMAQYAADLRRYINK([AEEA-AEEA-γGlu-C18 diacid])LTRPRY-NH2; N-terminus and C-terminus assumed), the half-life under setting [1] was 59 h. On the same count and under the same terms, the same measure for `CC[C@H](C)[C@H](NC(=O)[C@H](Cc1ccc(O)cc1)NC(=O)[C@H](CCCNC(=N)N)NC(=O)[C@H](CCCNC(=N)N)NC(=O)[C@H](CC(C)C)NC(=O)[C@H](CCCCNC(=O)COCCOCCNC(=O)COCCOCCNC(=O)CC[C@H](NC(=O)CCCCCCCCCCCCCCCCC(=O)O)C(=O)O)NC(=O)[C@H](C)NC(=O)[C@H](C)NC(=O)[C@H](Cc1ccc(O)cc1)NC(=O)[C@H](CCC(N)=O)NC(=O)[C@H](C)NC(=O)[C@H](CCSC)NC(=O)[C@H](CCC(N)=O)NC(=O)[C@H](CCC(=O)O)NC(=O)[C@@H]1CCCN1C(=O)[C@@H](NC(=O)[C@H](C)NC(=O)[C@H](CC(N)=O)NC(=O)[C@H](CC(=O)O)NC(=O)CNC(=O)[C@@H]1CCCN1C(=O)[C@H](Cc1ccc(O)cc1)NC(=O)[C@@H](NC(=O)[C@@H]1CCCN1C(=O)[C@H](CCC(=O)O)NC(=O)[C@@H](N)CC(C)C)C(C)C)[C@@H](C)O)C(=O)N[C@@H](CC(N)=O)C(=O)N[C@@H](CCSC)C(=O)N[C@@H](CC(C)C)C(=O)N[C@H](C(=O)N[C@@H](CCCNC(=N)N)C(=O)N1CCC[C@H]1C(=O)N[C@@H](CCCNC(=N)N)C(=O)N[C@@H](Cc1ccc(O)cc1)C(N)=O)[C@@H](C)O` [Compound AS] (H-LEPVYPGDNATPEQMAQYAAK([AEEA-AEEA-γGlu-C18 diacid])LRRYINMLTRPRY-NH2; N-terminus and C-terminus assumed): 10 h. For `CC[C@H](C)[C@H](NC(=O)[C@H](Cc1ccc(O)cc1)NC(=O)[C@H](CCCNC(=N)N)NC(=O)[C@H](CCCNC(=N)N)NC(=O)[C@H](CC(C)C)NC(=O)[C@H](CC(=O)O)NC(=O)[C@H](C)NC(=O)[C@H](C)NC(=O)[C@H](Cc1ccc(O)cc1)NC(=O)[C@H](CCCCNC(=O)COCCOCCNC(=O)COCCOCCNC(=O)CC[C@H](NC(=O)CCCCCCCCCCCCCCCCC(=O)O)C(=O)O)NC(=O)[C@H](C)NC(=O)[C@H](CCSC)NC(=O)[C@H](CCC(N)=O)NC(=O)[C@H](CCC(=O)O)NC(=O)[C@@H]1CCCN1C(=O)[C@@H](NC(=O)[C@H](C)NC(=O)[C@H](CC(N)=O)NC(=O)[C@H](CC(=O)O)NC(=O)CNC(=O)[C@@H]1CCCN1C(=O)[C@H](Cc1ccc(O)cc1)NC(=O)[C@@H](NC(=O)[C@@H]1CCCN1C(=O)[C@H](CCC(=O)O)NC(=O)[C@@H](N)CC(C)C)C(C)C)[C@@H](C)O)C(=O)N[C@@H](CC(N)=O)C(=O)N[C@@H](CCSC)C(=O)N[C@@H](CC(C)C)C(=O)N[C@H](C(=O)N[C@@H](CCCNC(=N)N)C(=O)N1CCC[C@H]1C(=O)N[C@@H](CCCNC(=N)N)C(=O)N[C@@H](Cc1ccc(O)cc1)C(N)=O)[C@@H](C)O` [Compound AW] (H-LEPVYPGDNATPEQMAK([AEEA-AEEA-γGlu-C18 diacid])YAADLRRYINMLTRPRY-NH2; N-terminus and C-terminus assumed), the half-life under setting [1] is 33 h. Consider `CC[C@H](C)[C@H](NC(=O)[C@H](Cc1ccc(O)cc1)NC(=O)[C@H](CCCNC(=N)N)NC(=O)[C@H](CCCNC(=N)N)NC(=O)[C@H](CC(C)C)NC(=O)[C@H](CC(=O)O)NC(=O)[C@H](C)NC(=O)[C@H](C)NC(=O)[C@H](Cc1ccc(O)cc1)NC(=O)[C@H](CCC(N)=O)NC(=O)[C@H](C)NC(=O)[C@H](CCSC)NC(=O)[C@H](CCC(N)=O)NC(=O)[C@H](CCC(=O)O)NC(=O)[C@@H]1CCCN1C(=O)[C@@H](NC(=O)[C@H](C)NC(=O)[C@H](CCCCNC(=O)COCCOCCNC(=O)COCCOCCNC(=O)CC[C@H](NC(=O)CCCCCCCCCCCCCCCCC(=O)O)C(=O)O)NC(=O)[C@H](CC(=O)O)NC(=O)CNC(=O)[C@@H]1CCCN1C(=O)[C@H](Cc1ccc(O)cc1)NC(=O)[C@@H](NC(=O)[C@@H]1CCCN1C(=O)[C@H](CCC(=O)O)NC(=O)[C@H](CC(C)C)NC(=O)[C@@H]1CCCN1)C(C)C)[C@@H](C)O)C(=O)N[C@@H](CC(N)=O)C(=O)N[C@@H](CCSC)C(=O)N[C@@H](CC(C)C)C(=O)N[C@H](C(=O)N[C@@H](CCCNC(=N)N)C(=O)N1CCC[C@H]1C(=O)N[C@@H](CCCNC(=N)N)C(=O)N[C@@H](Cc1ccc(O)cc1)C(N)=O)[C@@H](C)O` [Compound W], for which, where the note is “Table 2, PP(2-36) based, crude sample, i.v. minipig, read-out: Half-life minipig, Assay (II) (converted)”, the half-life is 29 h. On to `CC[C@H](C)[C@H](NC(=O)[C@H](Cc1ccc(O)cc1)NC(=O)[C@H](CCCNC(=N)N)NC(=O)[C@H](CCCNC(=N)N)NC(=O)[C@H](CC(C)C)NC(=O)[C@H](CC(=O)O)NC(=O)[C@H](C)NC(=O)[C@H](C)NC(=O)[C@H](Cc1ccc(O)cc1)NC(=O)[C@H](CCC(N)=O)NC(=O)[C@H](C)NC(=O)[C@H](CCSC)NC(=O)[C@H](CCC(N)=O)NC(=O)[C@H](CCC(=O)O)NC(=O)[C@@H]1CCCN1C(=O)[C@@H](NC(=O)[C@H](C)NC(=O)[C@H](CC(N)=O)NC(=O)[C@H](CCCCNC(=O)COCCOCCNC(=O)COCCOCCNC(=O)CC[C@H](NC(=O)CCCCCCCCCCCCCCCCC(=O)O)C(=O)O)NC(=O)CNC(=O)[C@@H]1CCCN1C(=O)[C@H](Cc1ccc(O)cc1)NC(=O)[C@@H](NC(=O)[C@@H]1CCCN1C(=O)[C@H](CCC(=O)O)NC(=O)[C@@H](N)CC(C)C)C(C)C)[C@@H](C)O)C(=O)N[C@@H](CC(N)=O)C(=O)N[C@@H](CCSC)C(=O)N[C@@H](CC(C)C)C(=O)N[C@H](C(=O)N[C@@H](CCCNC(=N)N)C(=O)N1CCC[C@H]1C(=O)N[C@@H](CCCNC(=N)N)C(=O)N[C@@H](Cc1ccc(O)cc1)C(N)=O)[C@@H](C)O` [Compound BF], for which, under setting [1], the half-life is 17 h.
